Results on 55 molecules are retold here after patent US8962244B2, “Compounds for modulating RNA binding proteins and uses therefor” (University of Massachusetts, priority 2009, dated 2015).

For the first test, the target named is T1, MEX-5 (Caenorhabditis elegans, UniProt Q9XUB2).
T1 construct: The fragment of mex-5 containing the TZF domain (amino acids 236-350) was amplified; made in house; host or cells: Escherichia coli JM109
T1 sequence (Q9XUB2 236-350): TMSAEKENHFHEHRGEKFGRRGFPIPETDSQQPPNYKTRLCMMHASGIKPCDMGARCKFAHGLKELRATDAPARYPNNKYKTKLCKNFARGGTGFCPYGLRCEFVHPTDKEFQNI
The test is described as follows: Fluorescence polarization screening of MEX-5 binding to fluorescein-labeled TCR2 RNA. Conditions: 192 μM test compound; score = polarization relative to no-drug and no-protein controls; 0.25 = 75% inhibition; lowest score = greatest inhibition; read-out: MEX-5 score. The source says:
The expression and purification of recombinant MEX-5 protein has previously been described in Pagano, J. M., Farley, B. M., McCoig, L. M. and Ryder, S. P. (2007) “Molecular basis of RNA recognition by the embryonic polarity determinant MEX-5;” J Biol Chem; 282, 8883-8894. The fragment of mex-5 containing the TZF domain (amino acids 236-350) was amplified from a commercially available ORFeome clone (Open Biosystems) and sub-cloned into the vector pMal-c (NEB), which encodes maltose binding protein as an N-terminal fusion. This construct is termed pMal-MEX-5 (236-350).
MEX-5 is expressed in Escherchia. coli JM109 liquid cultures grown at 37° C. Cultures were induced during mid log phase by the addition of 0.1 mM isopropyl 1-thio-β-D-galactopyranoside (IPTG) and allowed to grow for three hours. An amount of 100 μM zinc acetate (final concentration) was added at the time of induction. The pelleted cells were resuspended in lysis buffer (50 mM Tris pH 8.8, 200 mM NaCl, 2 mM DTT, EDTA free protease inhibitor tablet (Roche), 100 μM Zn(OAc)2) and lysed by sonication. The soluble protein was purified in three steps using standard chromatography methods: (1) amylose affinity (NEB), (2) Hi-TRAP-Q (GE Healthcare), and (3) Hi-TRAP-S (GE Healthcare). The Q buffer was composed of 50 mM Tris, pH 8.8, 20 mM-1500 mM NaCl, 2 mM DTT, and 100 μM Zn(OAc)2. The S buffer was composed of 50 mM MOPS, pH 6.0, 20 mM-1500 mM NaCl, 2 mM DTT, 100 μM Zn(OAc)2. The pure fractions, determined by coomassie-stained SDS-PAGE, were dialyzed into storage buffer (20 mM Tris, pH 8.0, 25 mM NaCl, 100 μM Zn(OAc)2, 2 mM DTT). The protein concentration was determined by measuring absorbance at 280 nm and the calculated extinction coefficient. The protein was stored at 50 μM concentration at 4° C.
All RNA oligonucleotides were chemically synthesized by Dharmacon or Integrated DNA Technologies. Upon arrival, each RNA was deprotected and stored according to the manufacturer's instructions. Prior to use, the RNA was resuspended in 10 mM Tris-HCl, pH 8.0, 0.1 mM EDTA, and the concentration determined by UV spectrophotometry using the calculated extinction coefficient at 260 nm based on the specific sequence. The sequence of the MEX-5 binding RNA (TCR2) is […] (SEQ ID NO:1). The POS-1 binding RNA (BMF018) is […] (SEQ ID NO:2). The MEX-3 binding RNA (SEQ 14) is […] (SEQ ID NO:3).
The RNA used for the small molecule screen was labeled at the 3′-end with fluorescein by Dharmacon during synthesis. In a few cases, follow up experiments were performed with post-synthetically labeled RNA. In this case, fluorescein 5-thiosemicarbazide (FTSC, Invitrogen) was used to 3′-end label each RNA after treatment with sodium periodate (see Reines, S. A. and Cantor, C. R. (1974) “New fluorescent hydrazide reagents for the oxidized 3′-terminus of RNA” Nucleic Acids Res. 1, 767-786). A representative 50 μl reaction consisted of 0.5 nanomoles RNA, 100 mM NaOAc, pH 5.1, and 5 nanomoles NaIO4. After the reaction was complete (90 minutes at room temperature), the sample was ethanol precipitated by adding 1 μl RNase free glycogen (Invitrogen 20 μg/μl), 1/20th volume of 5 M NaCl, and 2 volumes of 100% ice-cold ethanol. The resulting pellet was resuspended in 50 μl of 100 mM NaOAc, pH 5.1 containing 1 mM FTSC and was allowed to react overnight at 4° C. in the dark. The unreacted label was removed by ethanol precipitation with resuspension of the pellet in a small volume of TE, and purification over a Roche G-25 size exclusion spin column. The labeling efficiency is determined by calculating the ratio of fluorescein absorbance at 490 nm to RNA-fluorescein absorbance at 260 nm. Typical efficiencies are 60-80%.
The ability of MEX-5 to associate with RNA was monitored by fluorescence polarization using a victor V3 or victor V2V plate reader (Perkin Elmer) in 384-well FluoTrak microplates (Grenier). […]
On the technique in general: In fluorescence polarisation assays a small probe gives low polarisation when free and higher when bound to something large.
With `COc1ccc(OCc2nnc(S)n2-c2ccccc2)cc1` [CE], the remaining activity at 192 µM turned out to be 22.7%.
In the case of `CCCn1c(NC(=S)Nc2ccccc2)nc2ccccc21` [CH], the remaining activity at 192 µM came to 23.1%.
On the same count and under the same terms, the same measure for `Cn1c(-c2cc(Br)ccc2O)n[nH]c1=S` [AN]: 10.5%; for `COc1ccc(OCCn2c(NC(C)=O)nc3ccccc32)cc1` [BC]: 15.5%; for `O=C(Nc1nc2ccccc2s1)c1cccc(C(=O)Nc2nc3ccccc3s2)n1` [AP]: 12.2%.
Turning to `S=C(Nc1ccccc1)Nc1nc2ccccc2n1Cc1ccccc1` [AR], the remaining activity at 192 µM came to 12.9%.
Turning to `CCOC(=O)c1c[nH]c2nc3ccccc3n2c1=O` [AM], the remaining activity at 192 µM is 10.5%.
Still for that read-out and setting: the same measure for `Cc1cc(C)nc(NS(=O)(=O)c2ccc(Nc3nc(-c4ccc(O)c(O)c4)cs3)cc2)n1` [AC]: 7.58%.
The same measure, in the same setting: the same measure for `Sc1nnc(SCc2ccccc2Cl)s1` [CT]: 25.2%.
On the same count and under the same terms, the same measure for `Sc1nnc(-c2cccs2)n1CCc1ccccc1` [BQ]: 19.5%.
For the molecule `Cc1ccccc1Cn1c(S)nc2ccccc21` [AX], the remaining activity at 192 µM was found to be 14.1%.
In the case of `Sc1nnc(CCc2ccccc2)n1-c1ccccc1` [BD], the remaining activity at 192 µM is 15.5%.
On to `O=[N+]([O-])c1cc(CN2CCC(c3ccccc3)C2)c(O)c2ncccc12` (stereo not shown) [BX], for which the remaining activity at 192 µM worked out at 21.2%.
On the same count and under the same terms, the same measure for `O=[N+]([O-])c1cc(CN2CCOCC2)c2cccnc2c1O` [U]: 6.21%; for `Fc1ccc(-n2c(S)nnc2-c2cccs2)cc1` [CL]: 23.5%.
On to `Cc1cc([N+](=O)[O-])ccc1NC(=O)c1cnccn1` [BG], for which the remaining activity at 192 µM is 17.2%.
On the same count and under the same terms, the same measure for `O=C(Nc1nc2n(n1)C(c1ccccc1)C=C(c1ccccc1)N2)c1ccc([N+](=O)[O-])cc1` (stereo not shown) [BH]: 17.6%.
Take `CCOC(=O)N1CCN(C(=S)Nc2ccc3nc(-c4ccccn4)c(-c4ccccn4)nc3c2)CC1` [BZ]: the remaining activity at 192 µM was determined as 21.4%.
The same measure, in the same setting: to `Cc1ccc(-n2c(-c3ccco3)n[nH]c2=S)cc1` [AS] belongs 13.1%.
On the same count and under the same terms, to `CCc1cc(-c2n[nH]c(C)c2-c2nc3ccccc3s2)c(O)cc1OC` [CU] belongs 25.3%.
Same read-out and setting: to `O=c1[nH]c(=S)[nH]c2sc3c(c12)CCCCCCCCCC3` [CJ] belongs 23.4%.
On to `CCOC(=O)Cc1nnc(NC(=O)c2ncn[nH]2)s1` [N], for which the remaining activity at 192 µM was 2.09%.
Same read-out and setting: to `Oc1ccccc1-c1n[nH]c(=S)n1-c1ccccc1` [BM] belongs 18.8%.
Still for that read-out and setting: to `CCC(=O)NC(c1ccc(OC)c(OC)c1)c1cc([N+](=O)[O-])c2cccnc2c1O` (stereo not shown) [AG] belongs 8.62%; to `Sc1nnc(COc2cccc(Br)c2)n1-c1ccccc1` [BB], 15.4%.
As to `CCCCC(=O)Nc1cccc(NC(=S)NC(=O)C(C)C)c1` [BT], the remaining activity at 192 µM is 20.2%.
The same measure, in the same setting: the same measure for `Cc1ccccc1OCc1nnc(S)n1C` [CN]: 23.9%; for `O=S(=O)(Nc1cc(Cl)c(O)c2ccccc12)c1cccs1` [V]: 6.26%; for `COc1ccc(C(=O)NC(=S)Nc2cc(C)cc(C)c2)cc1Cl` [BN]: 18.9%.
Take `CCCc1nnc(NC(=O)c2cccc(C(=O)Nc3nnc(CCC)s3)n2)s1` [AK]: the remaining activity at 192 µM came out at 10.2%.
Same read-out and setting: to `Sc1nnc(-c2cccs2)n1-c1ccccc1` [R] belongs 3.52%; to `C=CCn1c(S)nnc1CCc1ccc(OC(C)C)cc1` [CS], 25.2%.
Still for that read-out and setting: to `CC(C)Oc1ccc(Cc2nnc(S)n2-c2ccccc2)cc1Cl` [CM] belongs 23.6%; to `CC(=O)Nc1nc(N2C(=O)c3ccccc3C2=O)n(-c2ccccc2)n1` [CV], 25.5%.
On the same count and under the same terms, to `O=C(CSc1nnc2c(n1)[nH]c1ccccc12)Nc1ccc(S(=O)(=O)Nc2nccs2)cc1` [CI] belongs 23.2%.
Consider `O=[N+]([O-])c1cccc(S(=O)(=O)Nc2cc(Cl)c(O)c3ccccc23)c1` [X], for which the remaining activity at 192 µM was determined as 6.69%.
On the same count and under the same terms, the same measure for `CCCCn1c(NC(=S)Nc2ccccc2)nc2ccccc21` [AW]: 14.1%; for `Cc1ccc(S(=O)(=O)Nc2nc(N3C(=O)c4ccccc4C3=O)n(-c3ccccc3)n2)cc1` [AT]: 13.2%.
Still for that read-out and setting: to `CCOC(=O)C(=O)Nc1nnc(Cc2ccc(Cl)cc2)s1` [Q] belongs 3.51%; to `COc1cc(-c2nnc(S)n2-c2ccc(C)cc2C)cc(OC)c1OC` [CF], 22.9%; to `O=[N+]([O-])c1cccc(S(=O)(=O)Nc2cc(Br)c(O)c3ccccc23)c1` [AJ], 9.23%.
`COc1ccc(C(=O)Nc2nc(N3C(=O)c4ccccc4C3=O)n(-c3ccccc3)n2)cc1` [BE]: the remaining activity at 192 µM came out at 16.1%.
Same read-out and setting: to `O=C(NC(=S)N(Cc1ccccc1)Cc1ccccc1)c1ccc([N+](=O)[O-])cc1` [CK] belongs 23.4%.
Take `Cc1ccc(C(=O)Nc2nc(-c3ccccc3)c(-c3ccccc3)o2)cc1` [CC]: the remaining activity at 192 µM came out at 22.5%.
Same read-out and setting: the same measure for `O=C(NC(=S)N(Cc1ccccc1)Cc1ccccc1)c1ccc(Br)o1` [CP]: 24.1%.
Still for that read-out and setting: the same measure for `CCc1ccc(-n2c(-c3cc(Cl)ccc3OC)n[nH]c2=S)cc1` [CG]: 23%; for `CCOC(=O)C(=O)Nc1nnc(C(C)(C)C)s1` [CR]: 24.7%.
Same read-out and setting: to `Cc1ccc(-c2cc(C(=O)Nc3ccccc3Cl)c3ccccc3n2)o1` [BW] belongs 21.2%.

The same test, now with this note: read-out: MEX-5 score.
As to `CC(=O)Oc1ccc2c(C)cc(=O)oc2c1OC(C)=O` [CQ], the remaining activity at 192 µM worked out at 24.5%.

For a further test, the target named is T2, POS-1 (Caenorhabditis elegans, UniProt G5EF15).
T2 construct: 6-his tag (N); made in house; host or cells: E. coli BL21 (DE3) Gold
T2 sequence (G5EF15 80-180): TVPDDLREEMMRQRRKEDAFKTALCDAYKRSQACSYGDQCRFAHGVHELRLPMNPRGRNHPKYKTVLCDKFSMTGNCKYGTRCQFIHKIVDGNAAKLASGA
The test is described as follows: Fluorescence polarization screening of POS-1 binding to fluorescein-labeled BMF018 RNA. Conditions: 192 μM test compound; score = polarization relative to no-drug and no-protein controls; 0.25 = 75% inhibition; lowest score = greatest inhibition; read-out: POS-1 score.
Take `Cc1ccc(CC(=O)Nc2ccc(S(=O)(=O)Nc3nccs3)cc2)cc1` [EK]: the remaining activity at 192 µM amounted to 23.7%.
On the same count and under the same terms, to `O=C(NC(=S)Nc1ccc(Cl)c(C(=O)O)c1)c1ccc(-c2ccccc2)cc1` [EH] belongs 23%.
Same read-out and setting: the same measure for `O=[N+]([O-])c1cc(C2Nc3ccc4ccccc4c3C3C=CCC32)ccc1O` (stereo not shown) [DE]: 8.86%; for `Cc1cc(NS(=O)(=O)c2ccc(Nc3nc(-c4ccc(F)c(C)c4)cs3)cc2)no1` [EN]: 24.7%; for `COc1ccc(N2CC(C(=O)Nc3ccc(S(=O)(=O)Nc4nccs4)cc3)CC2=O)cc1` (stereo not shown) [DA]: 6.51%.
On the same count and under the same terms, to `O=C(O)c1cccc(NC(=S)NC(=O)c2ccc(-c3ccc(Cl)cc3)o2)c1` [EI] belongs 23%.
